Laboratory results as given in patent publication US10736973B2, “Glucose analogs for diagnosis states” (TECHNOLOGY INNOVATION MOMENTUM FUND (ISRAEL) LIMITED …, priority 2014, dated 2020).

Legend:
[1] = rat, in vivo; cited from earlier work
[2] = system: DA3 mammary tumors; experiment: In vivo CEST MRI of DA3 mammary tumor bearing mice; parameters: species or system BALB/c mice
Method: CEST MRI experiments were performed on a Bruker 7T Biospec scanner with 30 cm bore size on implanted xenograph mammary tumors of mice before and following the injection of the glucose analog 3OMG. DA3 tumor bearing mice that were allowed to grow for 10-14 days, with an average tumor volume of 5 mm^3 were scanned. The mice were anesthetized using isoflurane (1-2%) and scanned with surface coil. Their temperature was monitored and maintained at 37° C. We performed i.p injections of the contrast medium, 3OMG (in saline, pH=7.4).
Images were generated as follows: a series of gradient-echo images were collected from a single 1 mm axial slice of (acquisition matrix 128×64, field of view of 40×40 mm2) after 1.2 s presaturation pulse of 2.5 μT (106 Hz) at ±1.2 ppm from the water signal. For the MTRasym plot, the mean intensities were used within the selected region of interest (ROI) within the tumor.
Having determined in vitro that 3OMG concentrations of only a few millimolar could be detected with CEST method (FIGS. 1-4), the determination of the potential use of 3OMG CEST MRI to image mammary tumors, in vivo, was carried out. Thus performed 3OMG CEST MRI experiments were carried out on mice bearing DA3 tumors injected with 3OMG glucose analog. Tumor anatomy was initially imaged using T2 weighted spin echo sequence (RARE).

[3] = system: DA3 tumors; experiment: CEST NMR of MCW extracts of tumors from treated mice; type: in vivo, BALB/C mice; conditions: 25 min after 1.5 g/kg; compared with D-glu; B1=2.5 μT, pH=7.0, T=25° C., 11.7 T
Method: (§1) • Chemicals and Media: 3OMG, D-glucose, D-glucose 6 phosphate, 2-DG and 2-DG-6P sodium salt were obtained from Sigma-Aldrich, Israel; FDG was obtained from Carbosynth Limited, UK. The glucose analogs were prepared at concentration of 10 mM (pH=7.5), containing 10% D2O for NMR field locking. • Cells: DA3-D1-DMBA-3 is a cell line derived from a poorly differentiated mammary adenocarcinoma induced in BALB/C mice by dimethylbenzanthracene. • Animals: BALB/C female mice were purchased and kept in the breeding facility of the Sackler School of Medicine, Tel Aviv University. To induce orthotropic tumors in mice, DA3 cells were injected into the lower left mammary gland of 8 week old (17-22 gr) female BALB/c mice (5×10^5 cells in 100 μL saline). […] Each sample was dissolved in 0.5 ml D2O (99.98%, Biolab, Israel), adjusted at pH=6.5-7 and inserted into 5 mm tube for NMR. • NMR Spectroscopy: 1H NMR Spectra were recorded at 500 MHz in 5 mm tubes on a Bruker 500 MHz DRX with the following parameters: spectral width 7500 Hz, pulse width 5.5 us (corresponding to a 45° flip angle); data size 16 K; relaxation delay 10 s; number of scans=16. […] The chemical exchange contrast was measured by magnetization transfer asymmetry, MTRasym. […]

[4] = system: hexokinase; conditions: cited from earlier work
[5] = in vivo; cited from earlier work
[6] = CEST NMR of 10 mM glucose analog solutions (MTRasym); type: physicochemical; conditions: pH 6.3-7.8 tested, 1.2 ppm, T=25° C., 11.7 T
Method: as §1

SMILES	Toxic high concentration [1]	Toxicity [1]	CEST enhancement (% CEST increase) in the tumor ([2]; i.p. injection 1.5 g/kg, 7T, ±1.2 ppm, 2.5 μT)	Time after which the enhanced tumor CEST MRI image started to decay ([2]; injection 1.5 g/kg)	CEST effect in other organs (apart from the urinary bladder) ([2]; injection 1.5 g/kg, throughout the MRI scans session)	CEST effect for the peak at 1.2 ppm in combined tumor extracts [3]	Phosphorylation [4]	Substrate for hexokinase [4]	Excretion [5]	pH at which the CEST effect has its maximum [6]
O=CC[C@@H](O)[C@H](O)[C@H](O)CO [2-DG, 2-deoxy-D-glucose]	3 g/kg	toxic at high concentrations								
CO[C@@H]([C@H](O)[C@H](O)CO)[C@@H](O)C=O [3OMG, 3-O-methylglucose]			about 20%	> 20 min	did not show any significant CEST effect	significantly high	does not undergo phosphorylation	does not serve as substrate	entirely excreted by the kidneys	~7.5
O=C[C@H](F)[C@@H](O)[C@H](O)[C@H](O)CO [FDG, 2-fluoro-deoxy-D-glucose]		toxic at high concentrations								
